In article PMC6522524 (Nature Communications, 2019):
“And” between values parts separate entries of the source, which are not always exact repeats. Equal entries are not always repeated. “Also recorded” adds a separate entry of the source. Where two headings read alike, the source gives them in different places.

Legend:
[1] = test system: HBV pgRNA/precore RNA in HepG2.2.15 cells; assay type: cell-based, Hepatitis B virus
Procedure: Fig. 1 Effect of FDA-approved compounds on HBV replication. a Schematic depiction of the primary screening analysis. HepG2.2.15 cells, which were stably transfected with HBV replicons, were treated with 978 FDA-approved drugs (1 μM) for 3 days. Entecavir (ETV) (1 μM) served as positive control. […] Quantitative RT-PCR was performed after 6 days of incubation. d Effect of the 19 candidates on intracellular HBV capsid assembly. Huh-7 cells were transfected with pCDNA3-Core and exposed after 12 h to the 19 candidates (1 μM) for 36 h. The cells were lysed and assembled HBV core particles were isolated by sucrose step gradient ultracentrifugation, resolved on 1% agarose gels, and subjected to immunoblot analysis with anti-HBV core antibody.
Quantitative RT-PCR with primers that detect three HBV regions (R1, R2, and R3, Supplementary Table 1) was used to measure HBV transcription. This RT-PCR detects pgRNA and precore RNA (3.5 kB), two HBV surface-encoding RNAs (2.5 kB and 2.1 kB), and HBx-encoding RNA (0.7 kB)[55]. PCR conditions were 95 °C for 10 min initially, then 50 cycles of 95 °C for 30 s, 60 °C for 60 s and 72 °C for 30 s, and finally 1 cycle of 95 °C for 60 s, 55 °C for 30 s and 95 °C for 30 s.
a Schematic depiction of the R1, R2, and R3 regions of the HBV genome that were targeted by
quantitative RT-PCR to quantitate the transcription of pgRNA, two HBV surface RNAs, and HBx RNA.
pGL3/HBV pgRNA promoter or pGL3/HBV sRNA promoter. The data shown in (b – d) represent two

[2] = test system: total HBV core protein in Huh-7 cells; assay type: cell-based, Hepatitis B virus
Procedure: the indicated times. The cells were lysed and assembled HBV core particles were isolated by sucrose step-gradient ultracentrifugation, resolved on 1 % agarose gels, and subjected to immunoblot analysis with anti-HBV core antibody. Total intracellular HBV core protein was also determined by immunoblot analysis in the cell lysates. Core mRNA levels were measured by quantitative RT-PCR. The data

BALB/c male mice = details: mouse, in vivo, po
Procedure: Five mice were included in each group. Mortality was monitored daily, and bodyweight was measured every other day. On day 28, blood was taken from the orbital sinus, and white blood cells, red blood cells and platelets were counted. Blood urea nitrogen, creatinine, glucose, total bilirubin, total cholesterol, triglyceride, albumin, total protein, aspartate aminotransferase, alanine aminotransferase (ALT), sodium, potassium, and chloride were measured. Urinalysis was performed including urobilinogen, glucose, bilirubin, ketone, specific gravity, blood, pH, protein, nitrate, and leukocytes.
Supplementary Table 3. Mean numbers of blood cells, and parameters for kidney and liver
Data are expressed as means ± standard deviations.
Abbreviations: WBC, white blood cell, AST, aspartate transaminase; ALT, alanine transaminase; ALP,
alkaline phosphatase; BUN, blood urea nitrogen; Na, sodium; K, potassium; Cl. Chloride; S.G, specific

[3] = test system: HBV transcripts in HepG2 cells transfected with pHBV1.2×; experiment: HBV transcription in HepG2 cells transfected with pHBV1.2×, quantitative RT-PCR; assay type: cell-based, Hepatitis B virus
Procedure: Quantitative RT-PCR with primers that detect three HBV regions (R1, R2, and R3, Supplementary Table 1) was used to measure HBV transcription. This RT-PCR detects pgRNA and precore RNA (3.5 kB), two HBV surface-encoding RNAs (2.5 kB and 2.1 kB), and HBx-encoding RNA (0.7 kB)[55]. PCR conditions were 95 °C for 10 min initially, then 50 cycles of 95 °C for 30 s, 60 °C for 60 s and 72 °C for 30 s, and finally 1 cycle of 95 °C for 60 s, 55 °C for 30 s and 95 °C for 30 s. […]
a Schematic depiction of the R1, R2, and R3 regions of the HBV genome that were targeted by quantitative RT-PCR to quantitate the transcription of pgRNA, two HBV surface RNAs, and HBx RNA. […]
c Region 3 transcription in ciclopirox-treated (b) HepG2.2.15 cells and (c) HepG2 cells transfected with the pHBV1.2× plasmid. d The promoter analysis of ciclopirox-treated HepG2 cells transfected with pGL3/HBV pgRNA promoter or pGL3/HBV sRNA promoter. The data shown in (b – d) represent two

[4] = test system: HBV (genotype D) in HepG2-NTCP cells; experiment: In vitro HBV infection model, HepG2-NTCP cells: secreted HBV DNA
Procedure: (§1) To isolate the secreted HBV DNA, culture media were collected and centrifuged at 15,000 × g to remove debris. The medium was diluted 1:1 with phosphate-buffered saline (PBS), and 1 M NaOH solution was added to a final concentration of 0.1 M. The mixture was incubated at 37 °C for 1 h. Protein was denatured by adding 2 M Tris-HCl (pH 7.5) solution to a final concentration of 0.2 M and incubating the mixture at 98 °C for 5 min. The protein precipitate was removed by centrifugation at 15,000 × g, and the supernatant was subjected to PCR with an HBV DNA primer and probe set (Supplementary Table 1). […] To isolate intracellular HBV DNA, the cells were lysed on ice with lysis buffer (50 mM Tris-HCl, pH 7.5, 1 mM EDTA, 1% NP40) for 10 min. After removing cell debris and nuclei by centrifugation at 15,000 × g, the supernatant was treated with micrococcal nuclease (0.25 U per μL, M0247, New England Biolabs) at 37 °C for 1 h. The micrococcal nuclease was then inactivated by adding EGTA to a final concentration of 10 mM. Thereafter intracellular HBV DNA was extracted with a G-spin^TM total kit (17046, Intron). The isolated intracellular HBV DNA was subjected to PCR with an HBV DNA primer and probe set (Supplementary Table 1). cccDNA was isolated by the Hirt extraction method[54]. […]

[5] = test system: HBV replicative plasmid pAAV-HBV1.2× in C57BL/6 mice; experiment: Hydrodynamic injection mouse model (pAAV-HBV1.2×, C57BL/6 mice); assay type: in vivo
[6] = test system: HBV rcDNA in Huh-7-NTCP cells; experiment: In vitro HBV infection model, Huh-7-NTCP cells: intracellular HBV rcDNA
Procedure: as §1

in vitro = assay type: cell-based, human; details: human, Cell viability(%)
Procedure: Supplementary Fig. 11. Effect of FBS serum iron level on Huh-7, HepG2, and HepG2.2.15 cell
a Cells were maintained in medium supplemented with 2% FBS or 10% FBS for 1 day and treated with
After 6 days, cytotoxicity was measured. b Cells were treated with
the ± SD. *p < 0.05 by unpaired two-tailed Student’s t-test.

[7] = test system: HBV cccDNA in Huh-7-NTCP cells; experiment: In vitro HBV infection model, Huh-7-NTCP cells: intracellular cccDNA
Procedure: HepG2 and Huh-7 cells permanently expressing NTCP were generated by infecting them with an NTCP-encoding recombinant retrovirus and isolating GFP-expressing cells.
The isolated intracellular HBV DNA was subjected to PCR with an HBV DNA primer and probe set (Supplementary Table 1). cccDNA was isolated by the Hirt extraction method[54]. Briefly, the cells were lysed in SDS lysis buffer (50 mM Tris-HCl, pH 8.0, 10 mM EDTA, 150 mM NaCl, 1% SDS), and the lysates were mixed with KCl to a final concentration of 0.5 M. After incubation at 4 °C for 30 min, each lysate was centrifuged and the supernatant was extracted three times with phenol and once with chloroform. The DNA was then recovered by ethanol precipitation, and treated with T5 nuclease (10 U per μg for 0.5 h, M0363, New England Biolabs), and the enzyme was subsequently heat-denatured at 70 °C. The isolated cccDNA was subjected to PCR with a cccDNA primer and probe set (Supplementary Table 1).
HepG2-NTCP and Huh-7-NTCP cells were cultured in 12-well plates with the indicated compound(s) for 4 h, after which the cells were infected with HBV particles (10^7 viral genome equivalent per mL, genotype D) and treated with the indicated compound(s) for another 16 h. […]
Quantitative PCR with an HBV DNA primer and probe set was used to measure intracellular
cccDNA. The data are expressed as means ± SDs. […]

[8] = target: HBV core protein (pCDNA3-Core, Y118 wild-type) in Huh-7 cells (Hepatitis B virus genotype C, UniProt P0C6H6); experiment: cell-based; assay type: cell-based
[9] = 5 mg per kg oral daily, by day 5
[10] = Huh-7, read-out: Relative intensity (Folds), intracellular capsid, AVERAGE
[11] = Huh-7, read-out: Relative intensity (Folds), intracellular capsid, individual samples

HBV core protein (pCDNA3-Core, Y118 wild-type) in Huh-7 cells, sequence (P0C6H6 whole entry): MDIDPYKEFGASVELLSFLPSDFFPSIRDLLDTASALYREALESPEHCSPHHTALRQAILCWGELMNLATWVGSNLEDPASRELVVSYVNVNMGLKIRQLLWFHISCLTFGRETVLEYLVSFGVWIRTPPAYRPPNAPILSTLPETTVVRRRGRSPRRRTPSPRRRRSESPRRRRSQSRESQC

In the case of `Cc1cc(C2CCCCC2)n(O)c(=O)c1` [Ciclopirox, 6-cyclohexyl-1-hydroxy-4-methyl-2(1 H)-pyridone], the “HBV transcripts levels” value [1] is reported as “no effect”, the “Total denatured HBV core protein” value ([2]; 36 h) is reported as “not affected” and the total core protein ([2]; treatment time increased) is reported as “decreased”. The Cl (BALB/c male mice; 1 mg/kg/day) was 100.0 ± 1.0 mmol/L, the Cl (BALB/c male mice; 5 mg/kg/day) was 99.0 ± 1.0 mmol/L and the “HBV transcripts levels” value [3] was “no effect”. The “secretion of HBV DNA” value [4] was “dropped markedly”, the “HBV core protein levels in the liver” value [5, 9] was “reduced HBV core protein levels in the liver” and the “serum HBV DNA levels” value [5, 9] was “significantly lowered serum HBV DNA levels”. For the same compound, the “HBsAg, AVERAGE” value ([5]; mouse, in vivo) was 278.443 ng/mL and 288.165 ng/mL and 304.224 ng/mL and 310.116 ng/mL, the “intracellular relaxed circular DNA levels” value [6] was “dropped markedly” and the viability at 0.1 µM (in vitro; AVERAGE) was 99.9%. The viability at 0.2 µM (in vitro; AVERAGE) was 99.8%, the viability at 0.5 µM (in vitro; AVERAGE) was 99.7% and the viability at 1 µM (in vitro; AVERAGE) was 99.7%. For the same compound, the viability at 2 µM (in vitro; AVERAGE) was 98%, the viability at 5 µM (in vitro; AVERAGE) was 96.5% and the viability at 10 µM (in vitro; AVERAGE) was 94.6%. The viability at 0.1 µM (in vitro; individual samples) was 98.5%, the viability at 0.2 µM (in vitro; individual samples) was 98.3% and the viability at 0.5 µM (in vitro; individual samples) was 98.2%. The viability at 1 µM (in vitro; individual samples) was 96.6%, the viability at 2 µM (in vitro; individual samples) was 95.4% and the viability at 5 µM (in vitro; individual samples) was 91.5%. For the same compound, the “cccDNA levels” value [7] was “dropped markedly”, the “intracellular HBV capsid assembly” value [8] was “inhibited HBV capsid assembly; also recorded: affected intracellular HBV capsid assembly” and the activity at 0.1 µM [8, 10] was 92.1%. The activity at 0.5 µM [8, 10] was 95.1%, the activity at 1 µM [8, 10] was 82.9% and the activity at 5 µM [8, 10] was 20.4%. The activity at 10 µM [8, 10] was 2.39%, the activity at 0.1 µM [8, 11] was 90% and the activity at 0.5 µM [8, 11] was 92.6%. For the same compound, the activity at 5 µM [8, 11] was 17.9% and the activity at 10 µM [8, 11] was 2.39%.
